From patent publication US6383812B1, “Anti liver disease drug R-YEEE and method of synthesizing branched galactose-terminal glycoproteins” (Academia Sinica, priority 1999, dated 2002)

Legend:
[1] = target: T1, asialoglycoprotein receptor (ASGPr) (Homo sapiens, UniProt P07306+P07307); test: Affinity of synthetic ligand to the asialoglycoprotein receptor; format: binding; details: relative to YEE(GalNAcAH)3; no method described
T1 sequence (P07306 1-291): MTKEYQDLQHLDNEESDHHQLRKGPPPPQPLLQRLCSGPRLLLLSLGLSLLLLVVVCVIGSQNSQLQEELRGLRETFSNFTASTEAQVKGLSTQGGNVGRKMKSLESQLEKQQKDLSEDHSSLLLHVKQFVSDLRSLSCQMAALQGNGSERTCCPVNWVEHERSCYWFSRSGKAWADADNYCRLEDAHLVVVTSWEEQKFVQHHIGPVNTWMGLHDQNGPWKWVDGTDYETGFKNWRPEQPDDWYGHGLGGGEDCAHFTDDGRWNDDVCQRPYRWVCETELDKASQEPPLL
T1 sequence (P07307 1-311): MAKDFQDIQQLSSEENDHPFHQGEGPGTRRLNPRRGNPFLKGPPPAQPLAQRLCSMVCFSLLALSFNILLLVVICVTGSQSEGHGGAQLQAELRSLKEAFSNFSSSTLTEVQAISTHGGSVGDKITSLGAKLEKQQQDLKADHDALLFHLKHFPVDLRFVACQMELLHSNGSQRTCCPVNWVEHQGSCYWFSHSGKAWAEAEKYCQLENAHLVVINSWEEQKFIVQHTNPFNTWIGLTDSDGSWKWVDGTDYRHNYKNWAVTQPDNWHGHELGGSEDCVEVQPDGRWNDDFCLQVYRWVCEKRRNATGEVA

[2] = target: T1, asialoglycoprotein receptor (ASGPr); details: reported by Lee et al., Glycoconjugate J., 1987; cited from earlier work

Substance | affinity to asialoglycoprotein receptors [1] | affinity to the ASGP-r [2]
tris-(N-acetylgalactosamine aminohexyl)glycoside of tyrosyl(glutamyl)2 glutamate [YEEE(GalNAcAH)3] | comparable to YEE(GalNAcAH)3 | –
tris-(N-acetylgalactosamine aminohexyl)glycoside of tyrosyl(glutamyl)glutamate [YEE(GalNAcAH)3] | – | subnanomolar
